Results reported in patent publication US9029384B2, “Phosphatidylinositol 3-kinase inhibitors” (Gilead Calistoga LLC, priority 2012, dated 2015).
Like-named read-outs stand apart in the source and are kept apart here.

Legend:
PI3Kδ = target: T1, PI3Kδ (Homo sapiens, UniProt O00329); test: Enzymatic activity of PI3K isoforms, TR-FRET assay (PIP3 formation); assay type: biochemical; conditions: read-out: IC50
T1 construct: made in house
Text: Enzymatic Activity of PI3K Isoforms
The TR-FRET assay was used to monitor formation of the product 3,4,5-inositol triphosphate molecule (PIP3) as it competed with fluorescently labeled PIP3 for binding to the GRP-1 pleckstrin homology domain protein. An increase in […] product results in a decrease in TR-FRET signal as the labeled fluorophore is displaced from the GRP-1 protein binding site.
Class I PI3K isoforms were expressed and purified as heterodimeric recombinant proteins. All assay reagents and buffers for the TR-FRET assay were purchased from Millipore. […] After an assay reaction time of 30 minutes at 25° C., reactions were terminated with a final concentration of 10 mM EDTA, 10 nM labeled-PIP3, and 35 nM Europium labeled GRP-1 detector protein before reading TR-FRET on an Envision plate reader (Ex: 340 nm; Em: 615/665 nm; 100 μs delay and 500 μs read window).
Data are normalized based on a positive (1 uM wortmanin) and negative (DMSO) controls. The α, β, δ, and γ IC50 values were calculated from the fit of the dose-response curves to a four-parameter equation. IC50 are reported in units of nM.
IC50 values were obtained for all PI3K isoforms (α, β, δ, and γ), and Table 2 summarizes the IC50 data collected for PI3Kδ in this Example B1.

[1] = Hepatocyte stability, 0.01% final DMSO, 1 μM substrate (t1/2^b); assay type: in vitro ADME; conditions: human, hepatocytes, TA with 0.01% final DMSO
Description: Alternatively, assay reagents and/or conditions can be modified in determining the inhibitory activities to PI3K isomers. In additional studies, similar assay using TA and 0.01% final DMSO concentration were incubated with 1 million hepatocytes/mL at 1 μM substrate in duplicate. The incubation was carried out at 37° C. with 5% CO2 and saturating humidity.

basophils = test: Basophil activation in human whole blood (Flow2 CAST kit, CD63 positive cells); assay type: cell-based
Description: Effect on basophil activation was measured in human whole blood using the Flow2 CAST® kit (Buhlmann Laboratories AG, Baselstrasse, Switzerland) following the protocol provided by the manufacturer with minor modifications. Human whole blood was collected into K2-EDTA venipuncture tubes. Whole blood samples were treated with either DMSO (0.3% final) or a serial dilution of compounds in DMSO for 60 minutes at 37° C. Basophils were then activated either with anti-FcεRI mAb or with fMLP. To activate basophils using the anti-FcεRI mAb; 50 μl of whole blood was mixed with 110 μl of stimulation buffer (B-BAT-STB) and 20 μl of anti-FcεRI (B-BAT-STCON). To activate basophils with fMLP; 50 μl of whole blood was mixed with 80 μl of stimulation buffer (B-BAT-STB) and 50 μl of fMLP (B-CCR-FMLP). Stimulation buffer was used as a negative control. 20 μl of the staining reagent (combination of anti-human CD63-FITC and anti-human CCR3-PE mAbs) was then added to each tube. […] Subsequently, erythrocytes were lysed and fixed by the addition of 2 ml of lysing solution (B-BAT-LYR) for 10 min at room temperature. Cells were pelleted by centrifugation at 1200 rpm for 10 min at room temperature in a swing-out rotor. Supernatant was aspirated and cell pellet resuspended in 400 μl of wash buffer. Flow cytometric analysis of the basophil activation was performed on a FC500MPL flow cytometer (Beckman Coulter Inc., Fullerton, Calif.). CCR3-staining and side scatter were applied to gate at least 200 basophils that expressed a high density of CCR3. The percent CD63 positive cells within the gated basophil population were determined in different treatment groups and normalized to the vehicle control (0.3% DMSO) with anti-FcεRI mAb of fMLP stimulus as 100%. Final compound concentration was adjusted to correct for dilution effect of added reagents. The EC50 values were calculated from the analysis of the dose-response curves to a four-parameter equation. All EC50 values represent geometric mean values and are reported in units of nM.

[2] = PI3Kδ, TR-FRET, 2×Km ATP, 10 μM PIP2
[3] = 1 μM substrate, samples at 0, 1, 3, 6 hours, read-out: human hepatocyte t½^b
[4] = Homo sapiens, basophils activated with anti-FcεRI mAb or fMLP, geometric mean
[5] = basophils activated with anti-FcεRI mAb or fMLP, geometric mean

T1 sequence (O00329 whole entry, canonical isoform): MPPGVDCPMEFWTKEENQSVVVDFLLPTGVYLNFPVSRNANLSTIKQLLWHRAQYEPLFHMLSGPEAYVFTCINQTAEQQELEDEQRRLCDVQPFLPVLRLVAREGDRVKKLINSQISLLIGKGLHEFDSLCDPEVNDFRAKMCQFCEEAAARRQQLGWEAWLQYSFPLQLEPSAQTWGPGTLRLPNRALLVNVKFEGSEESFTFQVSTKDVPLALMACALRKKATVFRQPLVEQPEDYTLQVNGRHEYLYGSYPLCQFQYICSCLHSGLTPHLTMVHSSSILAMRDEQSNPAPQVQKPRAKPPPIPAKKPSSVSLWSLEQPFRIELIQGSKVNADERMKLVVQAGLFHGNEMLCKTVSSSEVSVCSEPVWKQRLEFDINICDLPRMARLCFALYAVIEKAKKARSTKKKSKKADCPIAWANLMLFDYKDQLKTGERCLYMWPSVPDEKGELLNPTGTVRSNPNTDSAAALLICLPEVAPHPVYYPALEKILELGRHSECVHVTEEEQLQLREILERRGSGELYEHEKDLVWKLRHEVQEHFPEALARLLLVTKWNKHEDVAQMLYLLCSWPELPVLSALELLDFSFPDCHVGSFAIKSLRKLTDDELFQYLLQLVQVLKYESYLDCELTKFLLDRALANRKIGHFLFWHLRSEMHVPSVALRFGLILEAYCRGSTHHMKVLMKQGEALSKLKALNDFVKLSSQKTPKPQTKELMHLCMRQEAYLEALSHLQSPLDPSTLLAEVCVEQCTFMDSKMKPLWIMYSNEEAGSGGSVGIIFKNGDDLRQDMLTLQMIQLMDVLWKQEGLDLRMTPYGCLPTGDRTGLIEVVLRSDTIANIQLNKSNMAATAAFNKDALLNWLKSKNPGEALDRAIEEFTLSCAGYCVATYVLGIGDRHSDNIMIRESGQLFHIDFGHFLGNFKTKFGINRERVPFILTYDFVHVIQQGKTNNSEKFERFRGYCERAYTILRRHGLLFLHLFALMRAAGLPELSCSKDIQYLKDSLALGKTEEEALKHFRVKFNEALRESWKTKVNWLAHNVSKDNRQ
T1 sequence (P27986 whole entry partner, canonical isoform): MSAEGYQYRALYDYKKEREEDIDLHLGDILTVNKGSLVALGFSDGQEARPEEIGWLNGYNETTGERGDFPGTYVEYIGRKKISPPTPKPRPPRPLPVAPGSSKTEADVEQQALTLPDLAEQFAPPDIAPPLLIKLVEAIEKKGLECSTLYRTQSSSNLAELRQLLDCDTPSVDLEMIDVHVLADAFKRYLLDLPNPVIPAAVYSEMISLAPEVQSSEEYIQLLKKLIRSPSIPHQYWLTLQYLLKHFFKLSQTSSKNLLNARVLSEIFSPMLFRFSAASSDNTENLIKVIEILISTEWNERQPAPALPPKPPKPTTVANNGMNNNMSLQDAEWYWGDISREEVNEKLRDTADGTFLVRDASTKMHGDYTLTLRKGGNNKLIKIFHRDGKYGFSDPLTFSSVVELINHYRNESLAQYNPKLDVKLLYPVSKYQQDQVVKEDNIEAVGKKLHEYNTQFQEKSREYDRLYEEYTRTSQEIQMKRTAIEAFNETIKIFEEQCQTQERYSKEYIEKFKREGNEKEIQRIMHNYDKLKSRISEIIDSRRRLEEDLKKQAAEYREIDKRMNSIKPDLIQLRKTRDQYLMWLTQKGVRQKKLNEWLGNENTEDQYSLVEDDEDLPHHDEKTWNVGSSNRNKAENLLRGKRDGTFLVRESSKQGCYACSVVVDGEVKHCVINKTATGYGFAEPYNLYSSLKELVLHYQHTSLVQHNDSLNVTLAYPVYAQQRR

SMILES	IC50 (PI3Kδ; [2]) [nM]	EC50 (basophils; [4]) [nM]	EC50 (basophils; [5]) [nM]	other results
CC(Nc1nc(N)nc(N)c1C#N)c1nc2cccc(Cl)c2c(=O)n1-c1cccc(Cl)c1 (single isomer, unassigned) [Compound 8a]	< 1	1 to 10		half-life at 1 μM [1, 3]: 3 to 6 h
CC(Nc1nc(N)nc(N)c1C#N)c1nc2cccc(Cl)c2c(=O)n1-c1cccc(C#N)c1 (single isomer, unassigned) [Compound 12a]	1 to 10	1 to 10		half-life at 1 μM [1, 3]: > 10 h
CC(Nc1nc(N)nc(N)c1C#N)c1nc2ccc(F)cc2c(=O)n1-c1cccc(C#N)c1 (single isomer, unassigned) [Compound 13a]	10 to 50	1 to 10		half-life at 1 μM [1, 3]: > 10 h
CC(Nc1nc(N)nc(N)c1C#N)c1nc2c(Cl)cccc2c(=O)n1-c1ccccc1 (single isomer, unassigned) [Compound 22a]	1 to 10	1 to 10		half-life at 1 μM [1, 3]: > 10 h
CCC(Nc1nc(N)nc(N)c1C#N)c1nc2ccc(F)cc2c(=O)n1-c1cc(F)cc(F)c1 (single isomer, unassigned) [Compound 26a]	10 to 50	1 to 10		half-life at 1 μM [1, 3]: > 10 h
CC(Nc1nc(N)nc(N)c1C#N)c1nc2ccccc2c(=O)n1-c1cc(F)cc(F)c1 (single isomer, unassigned) [Compound 28a]	10 to 50	1 to 10		half-life at 1 μM [1, 3]: > 10 h
CC(Nc1nc(N)nc(N)c1C#N)c1nc2ccc(F)c(F)c2c(=O)n1-c1cc(F)cc(F)c1 (single isomer, unassigned) [Compound 29a]	10 to 50	1 to 10		half-life at 1 μM [1, 3]: > 10 h
CC(Nc1nc(N)nc(N)c1C#N)c1nc2cccc(Cl)c2c(=O)n1-c1cccc(C(F)(F)F)c1 (single isomer, unassigned) [Compound 47a]	1 to 10	1 to 10		half-life at 1 μM [1, 3]: 3 to 6 h
CC(Nc1nc(N)nc(N)c1C#N)c1nc2c(C(F)F)cccc2c(=O)n1-c1ccccc1 (single isomer, unassigned) [Compound 56a]	10 to 50	1 to 10		half-life at 1 μM [1, 3]: 6 to 10 h
COc1ccc(C)c(-n2c(C(C)Nc3nc(N)nc(N)c3C#N)nc3cccc(Cl)c3c2=O)c1 (single isomer, unassigned) [Compound 187a-1]	1 to 10		10 to 50	
COc1ccc(C)c(-n2c(C(C)Nc3nc(N)nc(N)c3C#N)nc3cccc(Cl)c3c2=O)c1 (single isomer, unassigned) [Compound 187a-2]	1 to 10		1 to 10	
Cc1ccc(C(F)F)cc1-n1c(C(C)Nc2nc(N)nc(N)c2C#N)nc2cccc(Cl)c2c1=O (single isomer, unassigned) [Compound 188a-1]	1 to 10		10 to 50	
Cc1c(C(F)F)cccc1-n1c(C(C)Nc2nc(N)nc(N)c2C#N)nc2cccc(Cl)c2c1=O (single isomer, unassigned) [Compound 189a-1]	10 to 50		> 50	
Cc1c(C(F)F)cccc1-n1c(C(C)Nc2nc(N)nc(N)c2C#N)nc2cccc(Cl)c2c1=O (single isomer, unassigned) [Compound 189a-2]	< 1		1 to 10	
Cc1ccc(C)c(-n2c(C(C)Nc3nc(N)nc(N)c3C#N)nc3cccc(Cl)c3c2=O)c1 (single isomer, unassigned) [Compound 191a-1]	1 to 10		10 to 50	
Cc1ccc(C)c(-n2c(C(C)Nc3nc(N)nc(N)c3C#N)nc3cccc(Cl)c3c2=O)c1 (single isomer, unassigned) [Compound 191a-2]	1 to 10		1 to 10	
CC(Nc1nc(N)nc(N)c1F)c1nc2cccc(Cl)c2c(=O)n1-c1ccccc1 (single isomer, unassigned) [Compound 194a]	> 50		> 50	

SMILES	IC50 (PI3Kδ; [2]) [nM]	EC50 (basophils; [4]) [nM]	EC50 (basophils; [5]) [nM]	other results
CC(Nc1nc(N)nc(N)c1Cl)c1cc2cccc(Cl)c2c(=O)n1-c1ccccc1 (single isomer, unassigned) [Compound 195a]			1 to 10	IC50 (PI3Kδ): < 1 nM
CC(Nc1nc(N)nc(N)c1C#N)c1cc2cccc(Cl)c2c(=O)n1-c1ccccc1 (single isomer, unassigned) [Compound 196a]			< 1	IC50 (PI3Kδ): < 1 nM
CC(C)C(Nc1nc(N)nc(N)c1C#N)c1nc2cccc(Cl)c2c(=O)n1-c1cc(F)cc(F)c1 (single isomer, unassigned) [Compound 198a]	1 to 10	1 to 10		
Cc1c(F)cccc1-n1c(C(C)Nc2nc(N)nc(N)c2C#N)nc2cccc(Cl)c2c1=O (single isomer, unassigned) [Compound 199a-1]	< 1		< 1	
Cc1c(F)cccc1-n1c(C(C)Nc2nc(N)nc(N)c2C#N)nc2cccc(Cl)c2c1=O (single isomer, unassigned) [Compound 199a-2]	1 to 10		> 50	
Cc1c(F)cc(F)cc1-n1c(C(C)Nc2nc(N)nc(N)c2C#N)nc2cccc(Cl)c2c1=O (single isomer, unassigned) [Compound 200a-1]	10 to 50		10 to 50	
Cc1c(F)cc(F)cc1-n1c(C(C)Nc2nc(N)nc(N)c2C#N)nc2cccc(Cl)c2c1=O (single isomer, unassigned) [Compound 200a-2]	10 to 50		1 to 10	
Cc1ccc(F)cc1-n1c(C(C)Nc2nc(N)nc(N)c2C#N)nc2cccc(Cl)c2c1=O (single isomer, unassigned) [Compound 201a-1]	< 1	< 1		
Cc1cccc(-n2c(C(C)Nc3nc(N)nc(N)c3C#N)nc3cccc(Cl)c3c2=O)c1C (single isomer, unassigned) [Compound 202a-1]	< 1		1 to 10	
Cc1cccc(-n2c(C(C)Nc3nc(N)nc(N)c3C#N)nc3cccc(Cl)c3c2=O)c1C (single isomer, unassigned) [Compound 202a-2]	10 to 50		> 50	
Cc1c(F)ccc(-n2c(C(C)Nc3nc(N)nc(N)c3C#N)nc3cccc(Cl)c3c2=O)c1C (single isomer, unassigned) [Compound 203a-1]	1 to 10		> 50	
Cc1c(F)ccc(-n2c(C(C)Nc3nc(N)nc(N)c3C#N)nc3cccc(Cl)c3c2=O)c1C (single isomer, unassigned) [Compound 203a-2]	> 50		10 to 50	
COc1cc(F)cc(-n2c(C(C)Nc3nc(N)nc(N)c3C#N)nc3cccc(Cl)c3c2=O)c1 (single isomer, unassigned) [Compound 205a]	1 to 10		< 1	
COc1cccc(-n2c(C(C)Nc3nc(N)nc(N)c3C#N)nc3cccc(Cl)c3c2=O)c1 (single isomer, unassigned) [Compound 206a]	< 1		< 1	
CC[C@H](C)[C@H](Nc1nc(N)nc(N)c1C#N)c1nc2cccc(Cl)c2c(=O)n1-c1cc(F)cc(F)c1 [Compound 164a, 2,4-diamino-6-(((1S,2S)-1-(5-chloro-3-(3,5-difluorophenyl)-4-oxo-3,4-dihydroquinazolin-2-yl)-2-methylbutyl)amino)pyrimidine-5-carbonitrile]	1 to 10	> 50		
C[C@H](Nc1ncnc(N)c1C#N)c1nc2cccc(F)c2c(=O)n1-c1cccc(F)c1 [Compound V, reference compound]				half-life at 1 μM ([1]; human hepatocytes, read-out: t1/2^b): < 1 h; EC50 (basophils; Homo sapiens, basophil activation): > 4 nM
